In ChEMBL document CHEMBL1201862, “PubChem BioAssay data set” (2004):
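The compound was tested at five concentrations on cells cultured in 96-well plates, with a 48-hour exposure period. At the GI50, growth is halved.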 Active and inactive are the calls of the source. Cut-off read from the data, not from the text of the source: active = GI50 up to about 1.1 µM and inactive = higher. Non-standard residues stand in square brackets, D forms with d. Residues, ends and D or L forms follow the SMILES beside them. *: point of attachment. NMeF = CN[CH](Cc1ccccc1)C(=O)O; NMeV = CN[CH](C(=O)O)C(C)C; Boc = CC(C)(C)OC(=O)*

How the values were obtained:
Experiment in all cases: growth of human tumour cells (NCI), 48 h
SK-MEL-28 = test system: SK-MEL-28
UO-31 = test system: UO-31
K562 = test system: K562
RPMI-8226 = test system: RPMI-8226
MOLT-4 = test system: MOLT-4
HCT-116 = test system: HCT-116
SW-620 = test system: SW-620
IGROV-1 = test system: IGROV-1
SNB-19 = test system: SNB-19
HCT-15 = test system: HCT-15
TK-10 = test system: TK-10
SF-295 = test system: SF-295
HT-29 = test system: HT-29
OVCAR-3 = test system: OVCAR-3
SK-MEL-5 = test system: SK-MEL-5
SN12C = test system: SN12C
SNB-75 = test system: SNB-75
HOP-92 = test system: HOP-92
A498 = test system: A498

Structure (SMILES) | GI50 (SK-MEL-28) | GI50 (UO-31) | GI50 (K562) | GI50 (RPMI-8226) | GI50 (MOLT-4) | GI50 (HCT-116) | GI50 (SW-620) | GI50 (IGROV-1) | GI50 (SNB-19) | GI50 (HCT-15) [µM] | GI50 (TK-10) | GI50 (SF-295) | GI50 (HT-29) | GI50 (OVCAR-3) | GI50 (SK-MEL-5) | GI50 (SN12C) | GI50 (SNB-75) | GI50 (HOP-92) | GI50 (A498)
CCOC(=O)c1ccc(N2C(=O)Cc3ccccc3C2=O)cc1 | > 100 µM (inactive) | > 100 µM (inactive) | > 100 µM (inactive) | > 100 µM (inactive) | > 100 µM (inactive) | > 100 µM (inactive) | > 100 µM (inactive) | > 100 µM (inactive) | > 100 µM (inactive) | > 100 | > 100 µM (inactive) | > 100 µM (inactive) | > 100 µM (inactive) | > 100 µM (inactive) | > 100 µM (inactive) | > 100 µM (inactive) | > 100 µM (inactive) | – | –
CN(C)CCCNC(=O)c1cccc2ccccc12 | > 100 µM (inactive) | > 10 µM (inactive) | > 100 µM (inactive) | – | > 100 µM (inactive) | > 100 µM (inactive) | > 100 µM (inactive) | – | > 100 µM (inactive) | > 100 | > 100 µM (inactive) | > 100 µM (inactive) | > 100 µM (inactive) | > 100 µM (inactive) | > 100 µM (inactive) | > 100 µM (inactive) | > 100 µM (inactive) | – | –
O=S(=O)(/C=C/c1ccc(F)cc1)Cc1ccc(CS(=O)(=O)/C=C/c2ccc(F)cc2)cc1 | > 100 µM (inactive) | > 100 µM (inactive) | > 100 µM (inactive) | > 100 µM (inactive) | > 100 µM (inactive) | > 100 µM (inactive) | > 100 µM (inactive) | > 100 µM (inactive) | > 100 µM (inactive) | > 100 | > 100 µM (inactive) | > 100 µM (inactive) | > 100 µM (inactive) | > 100 µM (inactive) | > 100 µM (inactive) | > 100 µM (inactive) | > 100 µM (inactive) | > 100 µM (inactive) | –
COc1ccc2nc3cc(Cl)ccc3c(Sc3ccc(NC(C)=O)cc3)c2c1 | 12.8 µM (inactive) | – | 9.71 µM (inactive) | 26.3 µM (inactive) | 6.87 µM (inactive) | 17.9 µM (inactive) | 14.2 µM (inactive) | > 32.4 µM (inactive) | – | – | > 36.2 µM (inactive) | > 25.9 µM (inactive) | 92.3 µM (inactive) | – | > 29.3 µM (inactive) | 14.9 µM (inactive) | > 24 µM (inactive) | – | > 41.7 µM (inactive)
[N-]=[N+]=Nc1cc(=O)oc2ccccc12 | > 100 µM (inactive) | > 100 µM (inactive) | > 100 µM (inactive) | > 100 µM (inactive) | > 100 µM (inactive) | > 100 µM (inactive) | > 100 µM (inactive) | > 100 µM (inactive) | – | > 100 | > 100 µM (inactive) | > 100 µM (inactive) | > 100 µM (inactive) | – | > 100 µM (inactive) | > 100 µM (inactive) | > 100 µM (inactive) | – | –
CC12CCC3=C(CSC4=C3CSc3ccccc34)C1=CCCC2=O (stereo not drawn) | > 100 µM (inactive) | 70.1 µM (inactive) | 40.8 µM (inactive) | 61.2 µM (inactive) | 16.8 µM (inactive) | 58.3 µM (inactive) | > 100 µM (inactive) | – | 66.5 µM (inactive) | 29.8 | 38 µM (inactive) | – | 34.1 µM (inactive) | 13.5 µM (inactive) | 17.4 µM (inactive) | > 100 µM (inactive) | – | – | –
O=C(O)C(CS)NCc1c2ccccc2nc2ccccc12 (stereo not drawn) | 72.6 µM (inactive) | 18.5 µM (inactive) | 26.1 µM (inactive) | 22 µM (inactive) | 15.3 µM (inactive) | 16.7 µM (inactive) | 37.4 µM (inactive) | 27 µM (inactive) | 58.6 µM (inactive) | 31.6 | 78.2 µM (inactive) | 43.2 µM (inactive) | 35.6 µM (inactive) | 38.9 µM (inactive) | – | 34.2 µM (inactive) | 65.8 µM (inactive) | 25.9 µM (inactive) | –
O=C1c2ccccc2C(=O)c2[nH]c(Cc3ccccc3F)nc21 | > 100 µM (inactive) | 52.5 µM (inactive) | > 100 µM (inactive) | 57.4 µM (inactive) | 89.7 µM (inactive) | 41.4 µM (inactive) | 37.9 µM (inactive) | – | 38.5 µM (inactive) | 45.2 | 29.3 µM (inactive) | 59.2 µM (inactive) | 32.1 µM (inactive) | 14.5 µM (inactive) | – | > 100 µM (inactive) | 50.7 µM (inactive) | 68.1 µM (inactive) | –
COc1ccc2ccccc2c1C1=NC(C)(C)CO1 | > 100 µM (inactive) | > 100 µM (inactive) | > 100 µM (inactive) | > 100 µM (inactive) | > 100 µM (inactive) | > 100 µM (inactive) | > 100 µM (inactive) | > 100 µM (inactive) | > 100 µM (inactive) | > 100 | > 100 µM (inactive) | > 100 µM (inactive) | > 100 µM (inactive) | > 100 µM (inactive) | > 100 µM (inactive) | > 100 µM (inactive) | > 100 µM (inactive) | 98.9 µM (inactive) | –
[N-]=[N+]=Nc1c(Br)c(=O)[nH]c(=O)n1COCCO | > 100 µM (inactive) | > 100 µM (inactive) | > 100 µM (inactive) | – | > 100 µM (inactive) | > 100 µM (inactive) | > 100 µM (inactive) | > 100 µM (inactive) | > 100 µM (inactive) | – | > 100 µM (inactive) | > 100 µM (inactive) | > 100 µM (inactive) | > 100 µM (inactive) | > 100 µM (inactive) | > 100 µM (inactive) | 86.1 µM (inactive) | > 100 µM (inactive) | –
NC(CCC(=O)NC(CSSCCCCS(=O)O)C(=O)NCC(=O)O)C(=O)O (stereo not drawn) | > 100 µM (inactive) | > 100 µM (inactive) | > 100 µM (inactive) | – | 29.5 µM (inactive) | > 100 µM (inactive) | > 100 µM (inactive) | > 100 µM (inactive) | > 100 µM (inactive) | > 100 | > 100 µM (inactive) | > 100 µM (inactive) | > 100 µM (inactive) | > 100 µM (inactive) | > 100 µM (inactive) | > 100 µM (inactive) | 23.4 µM (inactive) | – | > 100 µM (inactive)
COc1ccc(C2C(Cl)C(=O)N2NC(=O)c2ccccc2O)cc1OC (stereo not drawn) | > 100 µM (inactive) | 53.2 µM (inactive) | 50.2 µM (inactive) | – | 42.5 µM (inactive) | > 100 µM (inactive) | – | > 100 µM (inactive) | > 100 µM (inactive) | 68.9 | > 100 µM (inactive) | 51.8 µM (inactive) | 65.8 µM (inactive) | 75.9 µM (inactive) | 60 µM (inactive) | > 100 µM (inactive) | – | – | > 100 µM (inactive)
CC(C)C(NC(=O)OC(C)(C)C)C(=O)N(C)C(Cc1ccccc1)C(=O)N(C)C(C(=O)N(C)C(C(=O)O)C(C)C)C(C)C (stereo not drawn) (Boc-V[NMeF][NMeV][NMeV]-OH; configuration not given here) | > 100 µM (inactive) | > 100 µM (inactive) | > 100 µM (inactive) | > 100 µM (inactive) | > 100 µM (inactive) | > 100 µM (inactive) | > 100 µM (inactive) | > 100 µM (inactive) | > 100 µM (inactive) | > 100 | > 100 µM (inactive) | > 100 µM (inactive) | > 100 µM (inactive) | > 100 µM (inactive) | > 100 µM (inactive) | > 100 µM (inactive) | – | – | –
